This is an account of results in PubChem BioAssay (NCI).

≈ marks a conversion by molar mass, not a printed value.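 Grown in 96-well plates, cells were treated for 48 hours with each compound at five concentrations. Insufficient inhibition: endpoint recorded as highest concentration tested. GI50 = concentration required for 50% inhibition of growth. TGI: concentration producing complete growth inhibition.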

Some test systems named below: DU-145 prostate; K-562 leukemia; LOX IMVI melanoma; NCI-H23 lung; SK-MEL-2 melanoma; HOP-92 NSCLC; OVCAR-8 ovarian; SF-268 CNS; MDA-MB-435; SK-MEL-5 melanoma; SR leukemia.
Common to all, as to assay: NCI anticancer screen, dose series, 48 h

Regarding `CO/N=C1\CC(NC(=O)C(F)(F)F)c2ccsc21` (configuration not stated), the TGI in the assay on DU-145 prostate, with K-562 leukemia, with LOX IMVI melanoma, in the assay with NCI-H23 lung, in the assay with SK-MEL-2 melanoma and in the assay on HOP-92 NSCLC was over 100 µM throughout. Moreover, the TGI in the assay on OVCAR-8 ovarian, in the assay with SF-268 CNS, with MDA-MB-435, in the assay with SK-MEL-5 melanoma and in the assay with SR leukemia was over 100 µM each time.

As to `COC(=O)C(Cc1cn(C(C)n2cc(CC(NC(C)=O)C(=O)OC)c3ccccc32)c2ccccc12)NC(C)=O` (configuration not stated), the TGI in the assay on DU-145 prostate, in the assay with NCI-H23 lung, in the assay on SK-MEL-2 melanoma, in the assay with HOP-92 NSCLC, in the assay on SF-268 CNS and in the assay on MDA-MB-435 was over 100 µM each time. For the same compound, the TGI in the assay with SK-MEL-5 melanoma and in the assay on SR leukemia was over 100 µM each time.

As for `O=c1oc2ccccc2c(O)c1Cc1ccc(Cc2c(O)c3ccccc3oc2=O)cc1`, the TGI in the assay on DU-145 prostate, in the assay with K-562 leukemia, with LOX IMVI melanoma, in the assay on NCI-H23 lung, in the assay with SK-MEL-2 melanoma and with HOP-92 NSCLC was over 100 µM each time. The TGI in the assay on OVCAR-8 ovarian, with SF-268 CNS, with MDA-MB-435, in the assay with SK-MEL-5 melanoma and with SR leukemia was over 100 µM each time.

Take `O=C(O)c1nc2ccc(C(F)(F)F)cc2[nH]c1=O`: the TGI with DU-145 prostate, with K-562 leukemia, in the assay with LOX IMVI melanoma, with NCI-H23 lung, in the assay on SK-MEL-2 melanoma and with HOP-92 NSCLC was over 100 µM each time. Besides, the TGI in the assay with OVCAR-8 ovarian, with SF-268 CNS, with MDA-MB-435, in the assay on SK-MEL-5 melanoma and in the assay on SR leukemia was over 100 µM each time.

As to `CCOC(=O)c1csc(NC(=O)C(C)N2CCCC2)n1` (configuration not stated), the TGI in the assay with DU-145 prostate, in the assay on K-562 leukemia, in the assay on LOX IMVI melanoma, in the assay with NCI-H23 lung, in the assay with SK-MEL-2 melanoma and with HOP-92 NSCLC was over 100 µM in each case. In addition, the TGI in the assay with OVCAR-8 ovarian, in the assay with MDA-MB-435 and with SK-MEL-5 melanoma was over 100 µM each time.

Take `CC(=O)NNc1nc(C)c(C(=O)NNC(=O)C(=O)Nc2ccc([N+](=O)[O-])cc2[N+](=O)[O-])s1`: the TGI with K-562 leukemia, in the assay on LOX IMVI melanoma, in the assay on NCI-H23 lung, in the assay on SK-MEL-2 melanoma, in the assay with HOP-92 NSCLC and in the assay with OVCAR-8 ovarian was over 100 µM throughout. Moreover, the TGI in the assay on SF-268 CNS, with SK-MEL-5 melanoma and in the assay with SR leukemia was over 100 µM in each case.

Regarding `O=C1NN(C2=NNC3(C(=O)N2)c2ccccc2-c2ccccc23)C(c2ccccc2)=N/C1=C/c1ccc(Cl)cc1`, the GI50 is 89.1 µg/mL (≈ 164 µM) with DU-145 prostate; 50.4 µg/mL (≈ 92.6 µM) in the assay with K-562 leukemia; 56.1 µg/mL (≈ 103 µM) in the assay with LOX IMVI melanoma; 34.9 µg/mL (≈ 64.1 µM) in the assay on NCI-H23 lung; 78.1 µg/mL (≈ 143 µM) with OVCAR-8 ovarian; 61 µg/mL (≈ 112 µM) with SF-268 CNS. The GI50 was 44.2 µg/mL (≈ 81.2 µM) with MDA-MB-435, 46.4 µg/mL (≈ 85.1 µM) in the assay with SK-MEL-5 melanoma and 62 µg/mL (≈ 114 µM) in the assay on SR leukemia. Further, the TGI with DU-145 prostate, with K-562 leukemia, with LOX IMVI melanoma, in the assay on NCI-H23 lung, in the assay on OVCAR-8 ovarian and with SF-268 CNS was over 150 µg/mL throughout. The TGI in the assay with MDA-MB-435, with SK-MEL-5 melanoma and with SR leukemia was over 150 µg/mL throughout.
